“Also recorded” adds a separate entry of the source. Like-named read-outs stand apart in the source and are kept apart here.
Tests used:
hepatocellular carcinoma [1] = assay: Sorafenib therapy following JX-594 in HCC patients (DCE-MRI, Choi); format: in vivo, human
Experimental: Sorafenib Therapy and Tumor Response Assessment Following JX-594: Patients completed the IT clinical trial of JX-594 after 8 weeks on study. Some patients (Patients 1702, 1705, 1002, 1712, 1713) went on to receive standard sorafenib treatment (400 mg twice daily p.o.). Tumors in these patients were followed by DCE-MRI imaging using the same procedures that were used to assess response to JX-594 treatment.
Tumor Vascularity and Response Assessment: DCE MRI (dynamic contrast-enhanced magnetic resonance imaging) was performed at screening (baseline), on Day 5 (optional) and Week 8. For patients going on to Sorafenib, DCE MRI was performed 4 and/or 8 weeks after the start of Sorafenib treatment. DCE MRI assesses tumor size, vascularity and necrosis. The screening/baseline DCE MRI was used as the reference from which to determine time to progression and response rates. […] Tumor progression status and tumor response(s) to JX-594 were assessed radiologically by modified RECIST and modified Choi criteria at the Week 8 visit. Independent review of the images was made by radiologist(s) with expertise in evaluating hepatocellular carcinoma on MRI scans. For evaluation of the intra-hepatic tumors, the proportion of subjects with an objective “complete” or “partial” anti-tumor response was determined based on modified RECIST, and a response as measured by Modified Choi criteria (defined as a ≧10% decrease in the sum of the longest diameter and/or ≧15% decrease in the average tumor signal intensity at MRI).
Tumor Response by Modified Choi Criteria: The Choi response criteria takes into consideration changes in tumor density in addition to tumor diameter (versus RECIST) and data supporting its utility has been published (Choi et al. 2004). Early studies have shown that liver tumors treated with JX-594 can develop significant internal necrosis without a concomitant decrease in size, as has been described in gastrointestinal stromal tumors by Choi et al. (2004). Therefore, intra-hepatic tumors were also measured and response evaluated using a Modified Choi Criteria. The modification of the criteria is necessary as DCE MRI was the imaging modality employed for measuring tumor response. […] The screening/baseline DCE MRI was used as the reference from which to determine response. A response by Modified Choi criteria was defined as a ≧10% decrease in the sum of the longest diameter of the injected tumor(s) and/or ≧15% decrease in the average injected tumor signal intensity on MRI. The average MRI signal intensity (SI) was measured as a percentage of tumor.

hepatocellular carcinoma [2] = assay: Phase 2 trial, IV JX-594 then IT JX-594 then sorafenib in HCC; format: in vivo, human; details: Patient JX16-HCC-03, 10 days after sorafenib initiation, after one IV and two IT doses of JX-594
Experimental: JX-594 Treatment Procedure, Patients Treated by IV JX-594 Followed by IT JX-594 Followed by Sorafenib: Patients with unresectable HCC received […] of JX-594 levels (10^9 pfu). For the first dose (Day 1), JX-594 was administred by intravenous infusion over 60 minutes. For the second and third doses (Day 8 and Day 22), JX-594 was administered via imaging-guided intratumoral injection using a multi-pronged Quadrafuse injection needle in roughly spherical tumors, or by a 21-gauge PEIT (percutaneous ethanol injection, multi-pore; HAKKO Medicals; Tokyo, Japan) needle in irregularly-shaped tumors. Starting on Day 25, patients imitated oral sorafenib therapy (400 mg twice daily p.o.). Patients with viable tumor tissue received a Week 12 IT injection of JX-594 (sorafenib treatment was temporarily discontinued 2-3 days before, during and 4-5 days after this booster injection). Imaging (CT, DECE MIR and/or PET-CT) was performed at baseline, Day 25, Week 6 and/or Week 12 to assess response.
Example JX16-HCC-03, IV+IT+IT+Sorafenib Patient: Patient JX16-HCC-03 had hepatocellular carcinoma and was enrolled in a Phase 2 Clinical Trial of JX-594. After completing JX-594 administration (one intravenous and two intratumoral doses) patient received sorafenib.

[3] = test system: JX-594 replication in SNU423, SNU398, SNU475, SNU449, SNU387 and U2OS; format: cell-based, vaccinia virus
hepatocellular carcinoma [4] = assay: Sorafenib-only local control group assessed by Choi criteria; format: in vivo, human; details: no JX-594, 26 total, 15 assessed, both responders also had radiation therapy
Experimental: Example Sorafenib Only “Control Group” (Figure Included): Historically, the RECIST response rate to sorafenib alone is 1-2% (Llovet et al., 2008; Cheng et al., 2009). For a local control group assessed by Choi criteria, HCC patients that had not received JX-594, but had received sorafenib, were assessed for Choi response. In the hospital where 4 of the 5 JX-594 patients were treated, 26 other patients had received sorafenib in the same period. 7 patients died prior to response assessment, and 15 patients were assessed for Choi response. […] It should be noted that both of these patients had received radiation therapy in conjunction with sorafenib therapy.

[5] = test system: HepG2 (human HCC line) tumors; assay: HepG2 vascularity study, CD31 vessel counts; format: in vivo, nude mice
Text: FIG. 6 Anti-vascular effects of JX-594 followed by sorafenib. Top panels show study design of a preclinical study of JX-594 followed by Sorafenib in HepG2 xenograft model. […] Error bars are standard error.
Experimental Methods, Vascularity Study: The study followed longer term effects on vascularity and assessed the efficacy of JX-594+/−Sorafenib in the HepG2 model. HepG2 (human HCC line) tumors were implanted subcutaneously in nude mice. Animals were randomized to seven treatment groups (n=5 per group) to test agents alone, and in combination. Groups were treated with JX-594 (10^6 pfu intratumorally, D1 and D8) and/or Sorafenib (400 μg i.p., daily D15-D29) or PBS (control) on the schedule detailed in (FIG. 6). Tumors were measured using calipers twice weekly. Serum samples were collected on D1, D8, D15, D22 and D29 for measurement of VEGF and GM-CSF levels. Mice were euthanized on D22 or D35. Prior to euthanization, mice were injected with fluorescent microspheres to allow for visualization of tumor perfusion. […]
Results: Vessels were counted in CD31-stained OCT tumor sections; the average number of vessels in 3 fields of 200× magnification are presented in (FIG. 6).

murine HCC model = format: in vivo
[6] = test system: JX-594 replication in A2780 (ovarian) cells; format: cell-based, vaccinia virus
hepatocellular carcinoma [7] = details: cited from earlier work; for mean tumor necrosis (MRI): sorafenib-only trial
[8] = test system: JX-594 replication in PLC/PRF/5 human HCC cell line; assay: JX-594 burst size / replication with sorafenib in PLC/PRF/5 cells; format: cell-based, vaccinia virus
[9] = test system: CT26 colorectal tumor cells; assay: CT26 subcutaneous colorectal tumor model; format: in vivo, Balb/c mice; details: combination therapy, FIG. 3 legend
Experimental: FIG. 3. […] Kaplan-Meier survival curves are shown for each condition in the middle panel. Effects on tumor volume are shown in the lower panel.
Sorafenib enhances JX-594 activity against murine CT26 primary tumors in vivo: The combination of JX-594 and sorafenib was tested in an immunocompentent murine model of subcutaneously implanted CT26 colorectal tumor cells. Balb/c mice were injected with 3×10^5 CT26 cells subcutaneously and after 11 days, treatment commenced with Sorafenib alone (10 mg/kg p.o. daily for 2 weeks), JX594 alone (10^8 pfu IV 3 times per week for 1 week), or in combination (JX594 prior to Sorafenib, or Sorafenib prior to JX594) (n=4 per group) (FIG. 3, upper panel). Control animals received PBS only. For this experiment, a version of JX-594 was used that expresses murine GM-CSF. Tumors were measured twice weekly until endpoint. Surviving proportions of each study group at each timepoint post treatment are shown (FIG. 3, middle panel). The mean tumor volumes of each study group at each timepoint post-treatment are shown (FIG. 3, lower panel).

B16-F10-LacZ cells = assay: B16 melanoma lung nodule model; format: in vivo, C57BL/6 mice; details: combination therapy, FIG. 4 legend
Experimental: Sorafenib Enhances JX-594 Activity Against Murine B16 Melanoma Lung Nodules in Vivo: The combination of JX-594 and sorafenib was tested in an immunocompentent murine model of B16 melanoma tumors. C57BL/6 mice were injected with 3×10^5 B16-F10-LacZ cells IV and treated with Sorafenib alone (HD: 10 mg/kg, LD: 50 μg/kg p.o. daily for 2 weeks), JX594 alone (10^7 pfu IV 3 times per week for 1 week), or in combination (LD or HD sorafenib prior to JX-594 IV) (n=5 per group)(FIG. 4, top panel). At the end of treatment, mice were sacrificed and lungs were fixed and stained to detect B16 surface nodules (n=5 per group). The mean number of tumor nodules at the end of study is shown for each group (FIG. 4).

[10] = test system: JX-594 replication in HepG2 (HCC) cells; format: cell-based, vaccinia virus

CNC(=O)c1cc(Oc2ccc(NC(=O)Nc3ccc(Cl)c(C(F)(F)F)c3)cc2)ccn1 [Sorafenib]
DCE MRI finding after initiation of Sorafenib (hepatocellular carcinoma [1]; Patient 1702, after three IT doses JX-594, 4 and 8 weeks of Sorafenib (200 mg twice daily p.o.)): acute tumor necrosis
DCE MRI finding after initiation of Sorafenib (hepatocellular carcinoma [1]; Patient 1705, after JX-594, 4 weeks of Sorafenib 400 mg twice daily p.o.): acute tumor necrosis
DCE-MRI finding after initiation of Sorafenib (hepatocellular carcinoma [1]; Patient 1712, after JX-594, 4 weeks of Sorafenib 400 mg twice daily p.o.): acute tumor necrosis
tumor necrosis and vascular shutdown with adjuvant sorafenib (hepatocellular carcinoma [1]; sorafenib after the Week 8 assessment, patients pre-treated with JX-594): dramatic and durable tumor necrosis and vascular shutdown in two patients; also recorded: dramatic and durable tumor necrosis and vascular shutdown in at least three patients
DCE-MRI perfusion of non-injected extrahepatic tumor (hepatocellular carcinoma [2]): loss of perfusion
JX-594 replication [3]: inhibited JX-594 replication
patients with a Choi+ response (hepatocellular carcinoma [4]): 2 patients
number of vessels in CD31-stained tumor sections ([5]; Sorafenib alone 400 μg i.p. daily D15-D29, Day 29): transient decrease in the number of vessels
number of vessels in CD31-stained tumor sections ([5]; Sorafenib alone, Day 35): vessel counts increase again
angiogenesis (murine HCC model; adjuvant sorafenib after JX-594): inhibited angiogenesis
anti-tumoral efficacy (murine HCC model; adjuvant sorafenib after JX-594, versus either agent alone): significantly improved anti-tumoral efficacy over either agent alone
JX-594 plaque formation and replication (burst) [6]: can inhibit viral growth and replication; also recorded: Inhibits JX-594 Plaque Formation and Replication
RECIST response rate (hepatocellular carcinoma [7]; sorafenib alone, historical (Llovet et al., 2008; Cheng et al., 2009)): 1-2%
mean tumor necrosis (MRI) (hepatocellular carcinoma [7]; after several courses of treatment (Abou-Alfa et al., 2006)): 27%
mean tumor necrosis (MRI) (hepatocellular carcinoma [7]; at baseline (Abou-Alfa et al., 2006)): 9.8%
JX-594 replication ([8]; 10 μM sorafenib, various MOI, 24 hours infection, plaque assay on Vero cells): inhibited
burst size decreased ([8]; Sorafenib 10 μM added 2 hrs prior to, during or 2 hrs after JX-594 infection, PLC/PRF/5): up to 100 fold
JX-594 efficacy against CT26 subcutaneous solid tumors [9]: enhances JX-594 efficacy
JX-594 efficacy in murine B16 metastatic melanoma model (B16-F10-LacZ cells): enhances JX-594 efficacy
JX-594 plaque formation and replication (burst) [10]: can inhibit viral growth and replication; also recorded: Inhibits JX-594 Plaque Formation and Replication
